Experimental data: patent publication US20100222340A1, “SUBSTITUTED PYRIDO [1,2-a] ISOQUINOLINE DERIVATIVES” (priority 2004, published 2010)
Counter-ions that a name gives are not always drawn.

Biological target: T1, human DPP-IV (Homo sapiens, UniProt P27487)
T1 construct: made in house; host or cells: Pichia pastoris
Assay: DPP-IV activity assay (fluorogenic / colorimetric), IC50 determination
Format: biochemical
Conditions: natural human DPP-IV from human plasma pool or recombinant human DPP-IV; 37° C., pH 7.8
Procedure: Activity of DPP-IV inhibitors are tested with natural human DPP-IV derived from a human plasma pool or with recombinant human DPP-IV. Human citrate plasma from different donors is pooled, filtered through a 0.2 micron membrane under sterile conditions and aliquots of 1 ml are shock frozen and stored at −120° C. until used. In the colorimetric DPP-IV assay 5 to 10 μl human plasma and in the fluorometric assay 1.0 μl of human plasma in a total assay volume of 100 μl is used as an enzyme source. The cDNA of the human DPP-IV sequence of amino acid 31- to 766, restricted for the N-terminus and the transmembrane domain, is cloned into Pichia pastoris. Human DPP-IV is expressed and purified from the culture medium using conventional column chromatography including size exclusion and anion and cation chromatography. The purity of the final enzyme preparation of Coomassie blue SDS-PAGE is >95%. In the colorimetric DPP-IV assay 20 ng rec.-h DPP-IV and in the fluorometric assay 2 ng rec-h DPP-IV in a total assay volume of 100 μl is used as an enzyme source.
In the fluorogenic assay Ala-Pro-7-amido-4-trifluoromethylcoumarin (Calbiochem No 125510) is used as a substrate. A 20 mM stock solution in 10% DMF/H2O is stored at −20° C. until use. […]
Fluorescence is detected in a Perkin Elmer Luminescence Spectrometer LS 50B at an excitation wavelength of 400 nm and an emission wavelength of 505 nm continuously every 15 seconds for 10 to 30 minutes. Initial rate constants are calculated by best fit linear regression. The absorption of pNA liberated from the colorimetric substrate is detected in a Packard SpectraCount at 405 nm continuously every 2 minutes for 30 to 120 minutes. Initial rate constants are calculated by best fit linear regression. […]
IC50 determinations of test compounds are calculated by non-linear best fit regression of the DPP-IV inhibition of at least 5 different compound concentrations. Kinetic parameters of the enzyme reaction are calculated at least 5 different substrate concentrations and at least 5 different test compound concentrations.

T1 sequence (P27487 31-766): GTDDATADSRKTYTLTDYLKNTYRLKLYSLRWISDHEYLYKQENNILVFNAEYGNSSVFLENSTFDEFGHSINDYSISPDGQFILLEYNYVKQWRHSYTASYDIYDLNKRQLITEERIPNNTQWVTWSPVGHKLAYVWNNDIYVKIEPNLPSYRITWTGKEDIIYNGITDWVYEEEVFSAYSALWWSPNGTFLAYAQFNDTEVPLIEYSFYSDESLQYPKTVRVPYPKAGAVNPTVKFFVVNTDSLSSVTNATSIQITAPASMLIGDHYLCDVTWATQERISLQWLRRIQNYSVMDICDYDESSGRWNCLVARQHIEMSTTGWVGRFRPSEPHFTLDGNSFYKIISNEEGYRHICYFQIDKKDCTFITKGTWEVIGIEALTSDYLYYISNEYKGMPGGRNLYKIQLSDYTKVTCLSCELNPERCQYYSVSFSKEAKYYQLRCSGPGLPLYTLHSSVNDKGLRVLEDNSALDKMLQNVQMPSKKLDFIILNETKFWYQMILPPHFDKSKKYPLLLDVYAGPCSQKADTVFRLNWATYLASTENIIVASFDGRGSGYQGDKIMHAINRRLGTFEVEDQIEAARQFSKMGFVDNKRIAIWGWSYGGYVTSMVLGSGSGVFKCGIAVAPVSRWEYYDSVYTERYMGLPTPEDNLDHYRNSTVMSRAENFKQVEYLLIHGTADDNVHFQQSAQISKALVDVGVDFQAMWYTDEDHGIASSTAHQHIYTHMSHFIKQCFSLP

IC50 | SMILES
0.1 nM | COc1cc2c(cc1OCC(N)=O)CCN1C[C@H](c3cc(C)ccc3C)[C@@H](N)C[C@@H]21 (racemic) [Example 8, (2S,3S,11bS)- and (2R,3R,11bR)-2-[2-Amino-3-(2,5-dimethyl-phenyl)-10-methoxy-1,3,4,6,7,11b-hexahydro-2H-pyrido[2,1-a]isoquinolin-9-yloxy]-acetamide, hydrochloride]
1.1 nM | COc1cc2c(cc1OCC(=O)Nc1nn[nH]n1)CCN1C[C@H](c3cc(C)ccn3)[C@@H](N)C[C@@H]21 (racemic) [Example 13, (2S,3S,11bS)- and (2R,3R,11bR)-2-[2-Amino-10-methoxy-3-(4-methyl-pyridin-2-yl)-1,3,4,6,7,11b-hexahydro-2H-pyrido[2,1-a]isoquinolin-9-yloxy]-N-(2H-tetrazol-5-yl)-acetamide hydrochloride]
0.3 nM | COc1ccc2c(c1OCC(=O)N(C)C)CCN1C[C@H](c3cccc(C)c3)[C@@H](N)C[C@@H]21 (racemic) [Example 48, rac-2-((2S,3S,11bS)-2-Amino-9-methoxy-3-m-tolyl-1,3,4,6,7,11b-hexahydro-2H-pyrido[2,1-a]isoquinolin-8-yloxy)-N,N-dimethyl-acetamide]
